The source of these data is patent US20060094775A1, “Remedy for corneal ulcer” (priority 2003, published 2006).

Experiment [1] deals with proMMP-9, MMP-9, proMMP-2 and MMP-2 in rabbit corneal stromal cells. As to the kind of experiment: Gelatin zymography of culture medium for MMP-2 and MMP-9 forms after three-dimensional culture. Type of experiment: cell-based. The settings on record: for effect on expression of MMPs and proMMPs (gelatin zymography): plasminogen addition, IL-1β 0.1 ng/ml (Example 2, FIG. 9). On the procedure:
(§1) Rabbit corneal stromal cells were prepared and cultured according to the description of Mishima et al., Invest. Ophthalmol. Vis. Sci. 28, 1521-6 (1987). The rabbits were sacrificed by overdose of sodium pentobarbital. Eyeballs were enucleated, sclera was incised to remove cornea. Stroma was separated from epithelium and endothelium. Corneal stromal cells were detached from stroma by digesting with collagenase (Collagenase from Clostridium histolyticum, Sigma (U.S.A.) #C-0130) (2 mg/ml) at 37° C. for 3-4 hr. The cells were cultured in MEM supplemented with 10% fetal bovine serum (FBS), grown in an incubator (37° C. humidity 100%) in 5% CO2 and then passaged in MEM containing 10% FBS.
Collagen gel was prepared according to the manual of Nitta gelatin. To be specific, the obtained rabbit corneal stromal cells were washed with PBS(−), 0.05% Trypsin (1 ml) was added thereto, and the mixture was left in a CO2 incubator for several min to detach the cells. MEM (5 ml) containing 10% FBS was added to quench the trypsin reaction. The cell suspension was transferred to a 15 ml centrifuge tube, and centrifuged at 1500 rpm for 5 min. The supernatant was removed and the cells were suspended in a constant amount of serum free MEM. The number of the cells was counted with Burker-Turk hemocytometer (Kayagaki Irika Kogyo). The supernatant was removed by centrifugation at 1500 rpm for 5 min. Serum free MEM was added to give a cell suspension (2200000 cells/ml). A. acid-solubilized Type I collagen (3 mg/ml), B. 5-fold concentration of DMEM, C. reconstruction buffer (0.05N NaOH, 0.26 M NaHCO3, 0.2 M HEPES, pH 7.3) and D. a cell suspension (2.2×10^6 cells/ml) were mixed at a ratio of A:B:C:D=7:2:1:1 while cooling on ice. The collagen solution was placed in a 24 well culture plate at 0.5 ml/well, and stood in an incubator at 37° C. 5% CO2 for 0.5-5 hr. Then, 0.5 ml of serum free MEM containing IL-1β (0.1 ng/mL) and various concentrations of triptolide or dexamethasone was overlaid and cultured for 48 hr. […]

Experiment [2] deals with rabbit corneal stromal cells. As to the kind of experiment: Measurement of collagen degradation activity after three-dimensional collagen gel culture (hydroxyproline per well). Type of experiment: cell-based. The conditions noted are these: IL-1β 0.1 ng/ml, 48 hr three-dimensional culture, various concentrations. As to the method: as §1
Collagen gel was prepared according to the manual of Nitta gelatin. To be specific, the obtained rabbit corneal stromal cells were washed with PBS(−), 0.05% Trypsin (1 ml) was added thereto, and the mixture was left in a CO2 incubator for several min to detach the cells. […] The number of the cells was counted with Burker-Turk hemocytometer (Kayagaki Irika Kogyo). […]
After three-dimensional culture, the medium was collected and non-degraded collagen fibril having a molecular weight exceeding 100 kDa was removed by ultrafiltration. […] The amount of the hydroxyproline in the hydrolysate was measured using an Ehrlich's reagent and a spectrophotometer (Bergman et al., Anal. Chem., 35, 1961-5 (1963)). […]

The subject of experiment [3] is TIMP-1 production (mRNA) in rabbit corneal stromal cells. As to the kind of experiment: RT-PCR of TIMP-1 mRNA after three-dimensional culture. Type of experiment: cell-based. The settings on record: IL-1β 0.1 ng/ml; dexamethasone 1 nM, triptolide 3 μM. As to the method:
as §1
Collagen gel was prepared according to the manual of Nitta gelatin. […] The number of the cells was counted with Burker-Turk hemocytometer (Kayagaki Irika Kogyo). […]
After three-dimensional culture, collagenase was added to dissolve the collagen gel, and the cells were collected. […] This cDNA, QuantiTect SYBR Green PCR Master Mix solution (QuantiTect-SYBR Green PCR kit, manufactured by Qiagen, Germany), nuclease free water and rabbit TIMP-1 primer (synthesis at Nippon Gene Institute, Han et al., Nagoya J. Med. Sci. 62, 115-126 (1999)) were mixed, and the expression amount of TIMP-1 mRNA was examined using LightCycler (manufactured by Roche Molecular Biochemicals, Germany).

The test system of experiment [4] is proMMPs 1 and 3 in human synovial fluid fibroblast. The settings on record: cited from earlier work.
Experiment [5] relates to glycosylated proMMP-1, proMMP-1, MMP-1, proMMP-3 and MMP-3 in rabbit corneal stromal cells. Kind of experiment: Western blot of culture medium for MMP-1 and MMP-3 forms after three-dimensional culture. Type of experiment: cell-based. The settings on record: IL-1β addition. On the procedure: as §1
Collagen gel was prepared according to the manual of Nitta gelatin. To be specific, the obtained rabbit corneal stromal cells were washed with PBS(−), 0.05% Trypsin (1 ml) was added thereto, and the mixture was left in a CO2 incubator for several min to detach the cells. MEM (5 ml) containing 10% FBS was added to quench the trypsin reaction. The cell suspension was transferred to a 15 ml centrifuge tube, and centrifuged at 1500 rpm for 5 min. The supernatant was removed and the cells were suspended in a constant amount of serum free MEM. The number of the cells was counted with Burker-Turk hemocytometer (Kayagaki Irika Kogyo). The supernatant was removed by centrifugation at 1500 rpm for 5 min. […]

Molecules are shown by their SMILES. Entries after “also recorded” stand apart in the source; their conditions may differ.

With `CC(C)[C@]12O[C@H]1[C@@H]1O[C@@]13[C@@]1(C)CCC4=C(COC4=O)[C@@H]1C[C@@H]1O[C@@]13C2OC(=O)CCC(=O)[O-].[Na+]` (stereo partly drawn) [triptolide succinate sodium salt], the “effect on expression of MMPs and proMMPs (gelatin zymography)” value in experiment [1] was “suppresses increase of MMP-2 and activation of MMP-9”. Moreover, the “effect on IL-1β induced collagen degradation (amount of degraded collagen as hydroxyproline per well)” value in experiment [2] was “suppress IL-1β induced collagen degradation in a concentration dependent manner”.
Take `CC(C)[C@]12O[C@H]1[C@@H]1O[C@]13[C@]1(O[C@H]1C[C@H]1C4=C(CC[C@@]13C)C(=O)OC4)[C@@H]2O` [triptolide]: the “effect on TIMP-1 production (relative copy number of mRNA)” value in experiment [3] is given as “does not”. Further, the “effect on expression and activation of proMMPs (gelatin zymography)” value in experiment [1] (60 mg/ml plasminogen addition, IL-1β addition (Example 1)) is on record as “activation of proMMP-9”. In addition, the “effect on expression of MMPs and proMMPs (gelatin zymography)” value in experiment [1] is “suppresses increase of proMMP-2 and MMP-2, as well as activation of proMMP-9”. Further, the “effect on IL-1β induced collagen degradation (amount of degraded collagen as hydroxyproline per well)” value in experiment [2] is recorded as “suppress IL-1β induced collagen degradation in a concentration dependent manner; also recorded: suppresses IL-1β induced collagen degradation in a concentration dependent manner”. The “effect on production of proMMPs 1 and 3” value in experiment [4] is “suppresses production of proMMPs 1 and 3”. For the same compound, in experiment [5] (60 mg/ml plasminogen addition), the “effect on expression and activation of proMMPs (Western blot)” value is “suppresses increase and activation of glycosylated proMMP-1, proMMP-1 and proMMP-3”. Besides, the “effect on expression of proMMPs (Western blot)” value in experiment [5] (plasminogen non-addition) was “suppresses increase of glycosylated proMMP-1, proMMP-1 and proMMP-3 induced by IL-1β”.
